Residues, ends and D or L forms follow the SMILES beside them. *: point of attachment. Cbz = O=C(OCc1ccccc1)*
How the values were obtained:
[1] = test system: transfected COS cells; format: cell-based
[2] = test system: transfected HEK cells; format: cell-based

CC(C)C[C@@H](C=O)NC(=O)[C@H](CC(C)C)NC(=O)[C@H](CC(C)C)NC(=O)OCc1ccccc1 [MG132] (Cbz-Leu-Leu-Leu-aldehyde)
MTI-PAA expression in the presence of proteasome inhibitor [1]: enhanced | MTI-PAA levels in the presence of proteasome inhibitor [2]: increased levels of MTI-PAA
